Source: patent US11951109B2, “EZH2 inhibitors for treating lymphoma” (Epizyme, Inc., priority 2015, dated 2024)

Tests used:
[1] = tested on: KARPAS 422 tumor; test: Single agent activity of EPZ-6438 in KARPAS 422 tumor (FIG. 2A); format: in vivo; settings: mutant EZH2 (Y646N)
[2] = tested on: Non-Hodgkin's lymphoma; test: Phase 1 clinical study of EPZ-6438: tumor response; format: in vivo, human
Text: (§1) The phase 1 trial enrolled patients with relapsed/refractory solid tumors and B cell lymphoma. The study employed a standard 3+3 dose escalation design with two planned dose expansion cohorts and clinical pharmacology sub-studies. The primary endpoint was determination of a recommended phase 2 dose or MTD with standard secondary endpoints. The results of the study are also presented in WO 2015195848 and figures therein, the content of which is hereby incorporated by reference in its entirety.
The patients enrolled included 19 patients with Non-Hodgkin's lymphoma (NHL) of which 13 patients have DLBCL. Cell-of origin testing was intended for all NHL patients; however, 3 DLBCL patients had insufficient tissue to permit determination of germinal center vs. non-germinal center status. EZH2 mutation testing was centrally performed for 14 NHL patients by the Cobas® test (Roche). One lymphoma patient whose tumor has been treated to date carries an EZH2 mutation. For the solid tumor patients, attention has been given to recruiting patients with INI1-deficient tumors due to the oncogenic role of EZH2 in these tumors.
NHL patients on study were heavily pre-treated with 85% having received three or more prior systemic therapies and nearly half receiving four or more prior regimens.

[3] = tested on: SUDHL6 tumor; test: EPZ-6438 with CHOP chemotherapy in vivo, SUDHL6 tumor (FIG. 3B, 3C)
[4] = clinical; settings: human, in vivo
Text: as §1
[…]. […] While a decrease in AUC between the first dose and day 15 was observed, there was no further reduction in systemic exposure beyond that time, as evidenced by pre-dose Ctrough levels in the right panel.

[5] = human, in vivo
Text: as §1
[…]. One patient discontinued drug for grade 4 neutropenia. Both of these patients were treated in the 800 mg expansion cohort. • Seven patients had dose interruptions. Of these, 6 were from a reversible toxicity and resumed study agent at prior dose without further issue.

[6] = tested on: WSU-DLCL2 tumor; test: EPZ-6438 with CHOP chemotherapy in vivo, WSU-DLCL2 tumor (FIG. 3A)
[7] = tested on: OCI-LY19; test: Combination of EPZ-6438 and other therapeutic agents (4+3 model), OCI-LY19; settings: OCI-LY19; FIG. 1B
[8] = tested on: H3K27 trimethylation; test: Phase 1 clinical study: tri-methyl H3K27 levels in skin biopsy by immunohistochemistry; format: in vivo, human; settings: for reduction from baseline in PD H3K27 trimethylation in skin biopsy: wild type EZH2
Text: Pre- and post-dose skin biopsies were collected to assess pharmacodynamics in a surrogate tissue through the measurement of tri-methyl H3K27 levels by immunohistochemistry.

[9] = patient with primary mediastinal B-cell lymphoma, wild type EZH2, 200 mg orally twice a day

CCN(c1cc(-c2ccc(CN3CCOCC3)cc2)cc(C(=O)NCc2c(C)cc(C)[nH]c2=O)c1C)C1CCOCC1 [EPZ-6438, tazemetostat]
tumor growth, single agent [1]: growth inhibition
objective response ([2]; DLBCL): 5 of 9
reduction of abdominal mass ([2]; DLBCL patient with EZH2 mutation, by week 16): 52%
objective response ([2]; evaluable NHL patients): Nine of 15
objective response ([2]; follicular lymphoma): 3 of 5
response ([2]; one patient with marginal zone nodular lymphoma, approaching one year on therapy): partial response
FDG uptake [2, 9]: reduction
reduction in lesion size via computed tomography (CT) [2, 9]: 73%
reduction in lesion size via computed tomography (CT) ([2]; patient with transformed DLBCL, wild type EZH2, 100 mg orally twice a day): 66%
effect of combination with CHOP chemotherapy on mean tumor volume and survival [3]: synergy
PK at steady state throughout the entire dosing range [4]: dose-proportional linear PK
absorption [4]: rapid absorption
half-life [4]: 3 to 5 h
Grade 3 or greater adverse events, fraction of patients [5]: a third
Grade 3 or greater treatment-related adverse events [5]: 5 patients
tolerability [5]: well-tolerated
effect of combination with CHOP chemotherapy on mean tumor volume [6]: synergy
activity of EPZ-6438 in combination with prednisolone [7]: possesses activity
reduction from baseline in PD H3K27 trimethylation in skin biopsy ([8]; patient with primary mediastinal B-cell lymphoma, 200 mg orally twice a day): 27%
reduction from baseline in PD H3K27 trimethylation in skin biopsy ([8]; patient with transformed DLBCL, 100 mg orally twice a day): 21%
tri-methyl H3K27 levels across the full thickness of skin ([8]; pre- and post-dose skin biopsies): dose-dependent reduction
